Assay results: ChEMBL document CHEMBL5365485 (J Med Chem, 2023)
The source made the active and inactive calls. The rule behind the calls is not given here.

Key:
[1] = target: Hypoxia-inducible factor 1-alpha (Homo sapiens) (UniProt Q16665); assay: Stabilization of HIF-1alpha in human HeLa cells at 50 uM incubated for 2 hrs by Western blot analysis relative to VH298; format: cell-based
[2] = target: Hypoxia-inducible factor 1-alpha (Homo sapiens) (UniProt Q16665); assay: Stabilization of hydroxylated HIF-1alpha in human HeLa cells at 50 uM incubated for 2 hrs by Western blot analysis relative to VH298; format: cell-based
[3] = target: Hypoxia-inducible factor 1-alpha (Homo sapiens) (UniProt Q16665); assay: Stabilization of HIF-1alpha in HEK293 cells at 50 uM incubated for 2 hrs by Western blot analysis relative to VH298; format: cell-based
[4] = target: Hypoxia-inducible factor 1-alpha (Homo sapiens) (UniProt Q16665); assay: Stabilization of hydroxylated HIF-1alpha in HEK293 cells at 50 uM incubated for 2 hrs by Western blot analysis relative to VH298; format: cell-based
[5] = target: T1, Von Hippel-Lindau disease tumor suppressor/Elongin B/Elongin C (Homo sapiens, UniProt P40337); assay: Binding affinity to VHL (54 to 213 residues)/N-terminal Avi-tagged biotinylated-Elongin B (1 to 104 residues)/Elongin C (17 to 112 residues) (unknown origin) expressed in Escherichia coli cells immobilized in SA sensor chip assessed as dissociation constant by SPR analysis
T1 sequence (P40337 whole entry, looked up, the tested form may be a part): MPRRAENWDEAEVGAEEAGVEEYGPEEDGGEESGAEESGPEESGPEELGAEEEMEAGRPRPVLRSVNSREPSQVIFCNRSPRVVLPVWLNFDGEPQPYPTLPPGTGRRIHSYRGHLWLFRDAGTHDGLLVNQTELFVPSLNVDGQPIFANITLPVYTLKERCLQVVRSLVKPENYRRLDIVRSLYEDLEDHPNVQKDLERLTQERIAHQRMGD

[6] = target: T2, von Hippel-Lindau disease tumor suppressor (Homo sapiens, UniProt P40337); assay: Inhibition of NanoLuc-fused VHL (unknown origin) transfected in permeabilized HEK293 cells using NanoGlo substrate incubated for 30 mins by tracer based NanoBRET assay; format: cell-based
T2 sequence (P40337 whole entry, the tested form may be a part): as the sequence (P40337 whole entry, looked up, the tested form may be a part) above

[7] = tested on: HeLa; assay: Upregulation of HIF-1alpha level in human HeLa cells at 10 to 100 uM incubated for 1 hr by immunoblot analysis; format: functional, cell-based; settings: dose 10-100 µM
[8] = target: Hypoxia-inducible factor 1-alpha (Homo sapiens) (UniProt Q16665); assay: Induction of HIF-1alpha transcription activity in human U2OS cells incubated for 32 hrs by HRE-luciferase based assay; format: cell-based
[9] = target: Von Hippel-Lindau disease tumor suppressor/Elongin B/Elongin C (Homo sapiens) (UniProt P40337+Q15370+Q15369); assay: Binding affinity to biotinylated VHL/Elongin B/Elongin C (unknown origin) immobilized in SA sensor chip assessed as second-order on-rate constant for association (Kon) by SPR analysis; format: protein-complex assay
Von Hippel-Lindau disease tumor suppressor/Elongin B/Elongin C (Homo sapiens), sequence (P40337 whole entry, looked up): as the sequence (P40337 whole entry, looked up, the tested form may be a part) above
Von Hippel-Lindau disease tumor suppressor/Elongin B/Elongin C (Homo sapiens), sequence (Q15369 whole entry, looked up): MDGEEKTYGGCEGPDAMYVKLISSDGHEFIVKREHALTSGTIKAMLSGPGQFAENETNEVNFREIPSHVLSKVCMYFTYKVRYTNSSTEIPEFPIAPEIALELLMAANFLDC
Von Hippel-Lindau disease tumor suppressor/Elongin B/Elongin C (Homo sapiens), sequence (Q15370 whole entry, looked up): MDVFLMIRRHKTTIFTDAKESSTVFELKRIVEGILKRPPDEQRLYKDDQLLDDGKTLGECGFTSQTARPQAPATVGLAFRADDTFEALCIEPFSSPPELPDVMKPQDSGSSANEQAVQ

[10] = target: Hypoxia-inducible factor 1-alpha (Homo sapiens) (UniProt Q16665); assay: Induction of HIF-1alpha transcription activity in human HeLa cells incubated for 32 hrs by HRE-luciferase based assay; format: cell-based
[11] = target: T2, von Hippel-Lindau disease tumor suppressor; assay: Inhibition of NanoLuc-fused VHL (unknown origin) transfected in live HEK293 cells using NanoGlo substrate incubated for 30 mins by tracer based NanoBRET assay; format: cell-based
[12] = target: Hypoxia-inducible factor 1-alpha (Homo sapiens) (UniProt Q16665); assay: Induction of HIF-1alpha transcription activity in human HeLa cells assessed as increase in CA9 mRNA level at 50 uM incubated for 16 hrs by RT-qPCR analysis; format: cell-based
[13] = tested on: HeLa; assay: Upregulation of hydroxylated HIF-1alpha level in human HeLa cells at 10 to 100 uM incubated for 1 hr by immunoblot analysis; format: functional, cell-based; settings: dose 10-100 µM
[14] = target: T1, Von Hippel-Lindau disease tumor suppressor/Elongin B/Elongin C; assay: Binding affinity to N-terminal His6-tagged VHL (54 to 213 residues)/Elongin B (1 to 104 residues)/Elongin C (17 to 112 residues) (unknown origin) expressed in Escherichia coli BL21(DE3) cells assessed as dissociation constant by ITC analysis
[15] = target: T1, Von Hippel-Lindau disease tumor suppressor/Elongin B/Elongin C; assay: Binding affinity to biotinylated VHL/Elongin B/Elongin C (unknown origin) immobilized in SA sensor chip assessed as dissociation constant by SPR analysis; format: protein-complex assay
[16] = target: T1, Von Hippel-Lindau disease tumor suppressor/Elongin B/Elongin C; assay: Inhibition of VHL/Elongin B/Elongin C (unknown origin) using FAM-DEALA-Hyp-YIPD as substrate by fluorescence polarization assay; format: protein-complex assay
[17] = target: Hypoxia-inducible factor 1-alpha (Homo sapiens) (UniProt Q16665); assay: Induction of HIF-1alpha transcription activity in human U2OS cells at 150 uM incubated for 32 hrs by HRE-luciferase based assay; format: cell-based
[18] = target: Hypoxia-inducible factor 1-alpha (Homo sapiens) (UniProt Q16665); assay: Induction of HIF-1alpha transcription activity in human HeLa cells at 150 uM incubated for 32 hrs by HRE-luciferase based assay; format: cell-based
[19] = tested on: HeLa; assay: Upregulation of HIF-1alpha level in human HeLa cells at 50 uM incubated for 1 hr by immunoblot analysis; format: functional, cell-based
[20] = tested on: HeLa; assay: Upregulation of hydroxylated HIF-1alpha level in human HeLa cells at 50 uM incubated for 1 hr by immunoblot analysis; format: functional, cell-based

Hypoxia-inducible factor 1-alpha (Homo sapiens), sequence (Q16665 whole entry, looked up, the tested form may be a part): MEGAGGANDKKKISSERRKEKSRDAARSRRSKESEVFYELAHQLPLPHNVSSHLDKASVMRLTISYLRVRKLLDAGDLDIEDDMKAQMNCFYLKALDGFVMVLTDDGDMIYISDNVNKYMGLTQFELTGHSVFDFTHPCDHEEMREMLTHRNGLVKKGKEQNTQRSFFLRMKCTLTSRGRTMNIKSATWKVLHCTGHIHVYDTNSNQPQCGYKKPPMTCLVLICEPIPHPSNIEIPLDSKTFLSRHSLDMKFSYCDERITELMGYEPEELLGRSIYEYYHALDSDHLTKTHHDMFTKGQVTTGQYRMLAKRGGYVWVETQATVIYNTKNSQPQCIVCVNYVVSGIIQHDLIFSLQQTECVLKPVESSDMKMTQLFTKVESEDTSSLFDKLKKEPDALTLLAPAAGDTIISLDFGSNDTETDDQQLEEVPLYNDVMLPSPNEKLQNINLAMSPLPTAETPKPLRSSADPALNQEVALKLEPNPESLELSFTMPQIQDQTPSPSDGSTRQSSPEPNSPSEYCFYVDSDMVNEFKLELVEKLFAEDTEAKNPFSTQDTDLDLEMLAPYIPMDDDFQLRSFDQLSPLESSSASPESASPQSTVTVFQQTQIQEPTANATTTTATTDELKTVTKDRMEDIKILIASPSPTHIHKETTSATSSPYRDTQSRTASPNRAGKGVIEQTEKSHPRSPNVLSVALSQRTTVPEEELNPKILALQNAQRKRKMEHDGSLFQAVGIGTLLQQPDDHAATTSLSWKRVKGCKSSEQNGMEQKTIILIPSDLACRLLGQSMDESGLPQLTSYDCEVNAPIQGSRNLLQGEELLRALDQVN

`Cc1ncsc1-c1ccc(CNC(=O)[C@@H]2C[C@@H](O)CN2C(=O)[C@@H](NC(=O)C2(C#N)CC2)C(C)(C)C)cc1F` showed an Activity [1] of 83%, an Activity [2] of 74% and an Activity [3] of 18%. For the same compound, the Activity [4] was 20%.
Compound `CC(=O)N[C@H](C(=O)N1C[C@H](O)C[C@H]1C(=O)NCc1ccc(-c2scnc2C)c(C(F)(F)F)c1)C(C)(C)C` has a Kd [5] of 2990 nM.
`CC(=O)N[C@H](C(=O)N1C[C@H](O)C[C@H]1C(=O)NCc1ccc(-c2scnc2C)cc1C(F)(F)F)C(C)(C)C` showed a Kd [5] of 268 nM.
For `Cc1cc(-c2scnc2C)ccc1[C@H](C)NC(=O)[C@@H]1C[C@@H](O)CN1C(=O)[C@@H](NC(=O)C1(F)CC1)C(C)(C)C`, the IC50 [6] was 122 nM, the Activity [1] was 182% and the Activity [7] was “Active”. The Activity [8] was “Dose-Dependent Effect”, the K [9] was 1 10^6/M/s and the Activity [2] was 263%. For the same compound, the Activity [3] was 224%, the Activity [10] was “Dose-Dependent Effect” and the IC50 [11] was 164 nM. For the same compound, the Activity [12] was “Active”, the Activity [4] was 208% and the Activity [13] was “Active”.
For `Cc1ncsc1-c1ccc([C@H](C)NC(=O)[C@@H]2C[C@@H](O)CN2C(=O)[C@@H](NC(=O)C2(C#N)CC2)C(C)(C)C)cc1F`, the Activity [1] was 105%, the Activity [2] was 123% and the Activity [3] was 48%. It also gave an Activity [4] of 52%.
`Cc1ncsc1-c1ccc(CNC(=O)[C@@H]2C[C@@H](O)CN2C(=O)[C@@H](NC(=O)C2(C#N)CC2)C(C)(C)C)cc1` was tested, and the Activity [8] was “Dose-Dependent Effect”, the Activity [10] was “Dose-Dependent Effect” and the Activity [12] was “Active”.
`Cc1ncsc1-c1ccc([C@H](C)NC(=O)[C@@H]2C[C@@H](O)CN2C(=O)[C@@H](NC(=O)C2(F)CC2)C(C)(C)C)cc1F` was tested, and the Activity [1] was 120%, the K [9] was 1 10^6/M/s and the Activity [2] was 177%. The Activity [3] was 92% and the Activity [4] was 102%.
`CC(=O)N[C@H](C(=O)N1C[C@H](O)[C@H](F)[C@H]1C(=O)NCc1ccc(-c2scnc2C)cc1)C(C)(C)C` gave a Kd [14] of 244 nM.
In the case of `COc1cc(-c2scnc2C)c(F)cc1CNC(=O)[C@@H]1C[C@@H](O)CN1C(=O)[C@@H](NC(=O)C1(F)CC1)C(C)(C)C`, the Activity [1] is reported as 95%, the K [9] is reported as 1 10^6/M/s and the Activity [2] is reported as 98%. The Activity [3] was 73% and the Activity [4] was 68%.
`Cc1ncsc1-c1ccc(CNC(=O)[C@@H]2C[C@@H](O)CN2C(=O)[C@@H](NC(=O)C2(F)CC2)C(C)(C)C)cc1F` was tested, and the Activity [1] was 107%, the K [9] was 1 10^6/M/s and the Activity [2] was 108%. For the same compound, the Activity [3] was 89% and the Activity [4] was 75%.
`Cc1cc(-c2scnc2C)ccc1CNC(=O)[C@@H]1C[C@@H](O)CN1C(=O)[C@@H](NC(=O)C1(F)CC1)C(C)(C)C` was tested, and the Activity [1] was 116%, the K [9] was 1 10^6/M/s and the Activity [2] was 120%. It also gave an Activity [3] of 78% and an Activity [4] of 69%.
`Cc1cc(-c2scnc2C)ccc1[C@H](C)NC(=O)[C@@H]1C[C@@H](O)CN1C(=O)[C@@H](NC(=O)C1(C#N)CC1)C(C)(C)C` was tested, and the Activity [1] was 155%, the Activity [2] was 221% and the Activity [3] was 90%. It also gave an Activity [4] of 110%.
`Cc1cc(-c2scnc2C)c(F)cc1CNC(=O)[C@@H]1C[C@@H](O)CN1C(=O)[C@@H](NC(=O)C1(F)CC1)C(C)(C)C` was tested, and the Kd [15] was 72 nM, the Activity [1] was 124% and the K [9] was 1 10^6/M/s. The Activity [2] was 153%, the Activity [3] was 110% and the Activity [4] was 76%.
`Cc1cc(-c2scnc2C)ccc1CNC(=O)[C@@H]1C[C@@H](O)CN1C(=O)[C@@H](NC(=O)C1(C#N)CC1)C(C)(C)C` showed an Activity [1] of 89%, an Activity [2] of 88% and an Activity [3] of 78%. The Activity [4] was 66%.
`Cc1ncsc1-c1ccc(CNC(=O)[C@@H]2C[C@@H](O)CN2C(=O)Cc2cccc(N)c2C)cc1` gave an IC50 [16] of 900 nM.
With `Cc1cc(-c2scnc2C)c(F)cc1[C@H](C)NC(=O)[C@@H]1C[C@@H](O)CN1C(=O)[C@@H](NC(=O)C1(F)CC1)C(C)(C)C` the Activity [1] was 155%, the K [9] was 1 10^6/M/s and the Activity [2] was 217%. For the same compound, the Activity [3] was 152%, the IC50 [11] was 366 nM and the Activity [4] was 137%.
In the case of `COc1cc(-c2scnc2C)c(F)cc1[C@H](C)NC(=O)[C@@H]1C[C@@H](O)CN1C(=O)[C@@H](NC(=O)C1(F)CC1)C(C)(C)C`, the Activity [1] is reported as 128%, the Activity [7] is reported as “Active” and the Activity [8] is reported as “Dose-Dependent Effect”. The Activity [2] was 179%, the Activity [3] was 145% and the Activity [10] was “Dose-Dependent Effect”. For the same compound, the Activity [12] was “Active”, the Activity [4] was 137% and the Activity [13] was “Active”.
`Cc1ncsc1-c1ccc(CNC(=O)[C@@H]2C[C@H](O)CN2C(=O)[C@@H](NC(=O)C2(C#N)CC2)C(C)(C)C)cc1` was tested, and the Activity [17] was “inactive”, the Activity [18] was “inactive” and the Activity [19] was “inactive”. For the same compound, the Activity [20] was “inactive”.
